Test results from the OligoGym collection.
HELM strings list units from the 5' end as sugar, base in round brackets, then linkage (d deoxyribose, r ribose, m 2'-O-methyl, p phosphodiester). Strings are as the collection lists them, not checked against the first reports. ss, as = sense and antisense strand; [fl2r] = 2'-fluoro

Settings: siRNA
Note: test system not given here.

Substance	target mRNA knockdown
RNA1{r(A)p.r(G)p.r(A)p.r(A)p.r(G)p.[fl2r](U)p.r(A)p.r(C)p.[fl2r](C)p.r(A)p.r(G)p.r(G)p.r(A)p.r(G)p.r(G)p.r(C)p.r(G)p.r(U)p.r(U)p.r(T)p.r(T)}|RNA2{r(A)p.r(A)p.r(C)p.r(G)p.r(C)p.r(C)p.r(U)p.r(C)p.r(C)p.[fl2r](U)p.r(G)p.r(G)p.[fl2r](U)p.r(A)p.r(C)p.r(U)p.r(U)p.r(C)p.r(U)p.r(T)p.r(T)}$$$RNA1{StrandType:ss}|RNA2{StrandType:as}$	57%
RNA1{r(A)p.r(G)p.r(U)p.r(C)p.r(C)p.r(C)p.r(U)p.r(G)p.r(G)p.r(A)p.r(G)p.r(C)p.r(C)p.r(U)p.m(U)p.m(A)p.r(A)p.r(A)p.r(C)p.r(T)p.r(T)}|RNA2{r(G)p.r(U)p.r(U)p.r(U)p.m(A)p.r(A)p.r(G)p.r(G)p.r(C)p.r(U)p.r(C)p.r(C)p.r(A)p.r(G)p.r(G)p.r(G)p.r(A)p.r(C)p.r(U)p.r(T)p.r(T)}$$$RNA1{StrandType:ss}|RNA2{StrandType:as}$	62%
RNA1{r(U)p.r(C)p.r(C)p.m(U)p.r(A)p.r(G)p.r(C)p.m(U)p.r(G)p.r(U)p.r(C)p.r(U)p.m(U)p.r(G)p.r(U)p.r(C)p.r(C)p.r(C)p.r(U)p.r(T)p.r(T)}|RNA2{r(A)p.r(G)p.r(G)p.r(G)p.r(A)p.m(C)p.r(A)p.r(A)p.r(G)p.r(A)p.m(C)p.r(A)p.r(G)p.r(C)p.m(U)p.r(A)p.r(G)p.r(G)p.r(A)p.r(T)p.r(T)}$$$RNA1{StrandType:ss}|RNA2{StrandType:as}$	68%
RNA1{[fl2r](G)p.r(U)p.[fl2r](U)p.r(C)p.[fl2r](A)p.r(C)p.[fl2r](G)p.r(U)p.[fl2r](C)p.r(C)p.[fl2r](U)p.r(A)p.[fl2r](C)p.r(C)p.[fl2r](C)p.r(C)p.[fl2r](U)p.r(U)p.[fl2r](U)p.r(T)p.r(T)}|RNA2{r(A)p.r(A)p.r(A)p.r(G)p.r(G)p.r(G)p.r(G)p.r(U)p.r(A)p.r(G)p.r(G)p.r(A)p.[fl2r](C)p.r(G)p.r(U)p.r(G)p.r(A)p.r(A)p.[fl2r](C)p.r(T)p.r(T)}$$$RNA1{StrandType:ss}|RNA2{StrandType:as}$	23%
RNA1{r(A)p.r(A)p.r(A)p.r(C)p.r(G)p.m(U)p.r(G)p.r(A)p.r(C)p.r(U)p.r(U)p.m(U)p.r(G)p.r(G)p.r(U)p.r(U)p.r(C)p.m(C)p.r(U)p.r(T)p.r(T)}|RNA2{r(A)p.r(G)p.r(G)p.r(A)p.r(A)p.r(C)p.m(C)p.r(A)p.r(A)p.r(A)p.r(G)p.r(U)p.m(C)p.r(A)p.r(C)p.r(G)p.r(U)p.r(U)p.r(U)p.r(T)p.r(T)}$$$RNA1{StrandType:ss}|RNA2{StrandType:as}$	82%
RNA1{m(G)p.r(G)p.m(A)p.r(G)p.m(C)p.r(U)p.m(A)p.r(G)p.m(A)p.r(C)p.m(G)p.r(G)p.m(G)p.r(U)p.m(A)p.r(C)p.m(G)p.r(A)p.r(G)p.r(T)p.r(T)}|RNA2{r(C)p.r(U)p.r(C)p.r(G)p.r(U)p.r(A)p.r(C)p.r(C)p.r(C)p.r(G)p.r(U)p.r(C)p.r(U)p.r(A)p.r(G)p.r(C)p.r(U)p.r(C)p.r(C)p.r(T)p.r(T)}$$$RNA1{StrandType:ss}|RNA2{StrandType:as}$	75%
RNA1{r(G)p.r(A)p.r(U)p.r(A)p.r(G)p.r(G)p.r(A)p.r(A)p.r(G)p.r(G)p.r(G)p.r(G)p.r(C)p.r(U)p.r(U)p.r(C)p.r(A)p.r(G)p.r(C)p.r(T)p.r(T)}|RNA2{r(G)p.m(C)p.m(U)p.r(G)p.r(A)p.r(A)p.r(G)p.m(C)p.m(C)p.m(C)p.m(C)p.m(U)p.m(U)p.m(C)p.m(C)p.m(U)p.r(A)p.m(U)p.m(C)p.r(T)p.r(T)}$$$RNA1{StrandType:ss}|RNA2{StrandType:as}$	12%
RNA1{r(A)p.r(G)p.r(A)p.r(A)p.r(A)p.r(C)p.r(G)p.m(C)p.r(A)p.r(G)p.m(U)p.r(A)p.r(A)p.r(U)p.r(C)p.r(C)p.r(G)p.r(G)p.r(A)p.r(T)p.r(T)}|RNA2{r(U)p.r(C)p.r(C)p.r(G)p.r(G)p.r(A)p.r(U)p.m(U)p.r(A)p.r(C)p.m(U)p.r(G)p.r(C)p.r(G)p.r(U)p.r(U)p.r(U)p.r(C)p.r(U)p.r(T)p.r(T)}$$$RNA1{StrandType:ss}|RNA2{StrandType:as}$	81%
